The text below walks through data of DBAASP.

≈ marks a conversion by molar mass, not a printed value.

Some test systems named below: Pseudomonas fluorescens; Escherichia coli L361; Bacillus cereus ACM 446; Escherichia coli O9; Escherichia coli NDM-1; Enterobacter cloacae; Enterococcus faecalis; Klebsiella oxytoca; Morganella morganii; Citrobacter freundii; Escherichia coli C25.
Experiment in all cases: ≥ marks a high value that may be exact or a test limit, other limits are often not marked, values filed in µg/mL are converted to µM
Test [1] concerns Bacillus cereus ATCC 14579.
Test [2] concerns Bacillus licheniformis ATCC 14580.
In test [3] the test system is Pseudomonas aeruginosa PAO1.
Test [4] has as its system Proteus mirabilis ATCC 35659.
For test [5], the system named is Staphylococcus aureus ATCC 29213.
Test [6] has as its system Enterococcus faecium 5F-10.
The test system of test [7] is Bacillus amyloliquefaciens ATCC 23842.
In test [8] the test system is Enterococcus faecalis 1F-1.
The test system of test [9] is Bacillus subtilis ATCC 6051.
Test [10] concerns Escherichia coli ATCC 25922.
The test system of test [11] is Salmonella enterica ATCC H9812.
Test [12] relates to Staphylococcus aureus NCTC 6571.
Test [13] concerns Salmonella enterica subsp. enterica serovar Salford IMVS 1710.
The subject of test [14] is Listeria monocytogenes NCTC 7973.
In test [15] the test system is Escherichia coli DH5alpha.
Test [16] has as its system Staphylococcus aureus ATCC 9144.
Test [17] deals with Escherichia coli ATCC 10536.
Test [18] concerns Bacillus subtilis ATCC 6633.
Test [19] relates to Klebsiella pneumoniae NDM-1.
Test [20] concerns Bacillus subtilis ATCC 23857.
Test [21] has as its system Staphylococcus aureus ATCC 1717.
The test system of test [22] is Klebsiella pneumoniae ATCC 13883.
In test [23] the test system is Staphylococcus aureus JE2.
The test system of test [24] is Pseudomonas aeruginosa ATCC 27853.
The test system of test [25] is Micrococcus luteus ATCC 49732.
For test [26], the system named is Staphylococcus aureus ATCC 6538.
For test [27], the system named is Escherichia coli ATCC 15597.
Test [28] relates to Klebsiella pneumoniae NCTC 5055.
In test [29] the test system is Salmonella typhimurium DA6192.
For test [30], the system named is Staphylococcus aureus ATCC 25923.

For orientation: MIC means the lowest concentration that inhibits growth of the organism. A higher MIC goes with a need for much substance. Turning to `CC(C)C[C@H](NC(=O)[C@H](CC(C)C)NC(=O)[C@H](CCC(=O)O)NC(=O)[C@@H](N)CC(=O)O)C(=O)N[C@@H](CO)C(=O)N[C@@H](CCCN=C(N)N)C(=O)N[C@H](C(=O)O)C(C)C` [DELLSRV], the MIC in [1] was no less than 154 µM; in [2], no less than 154 µM; in [3], greater than 154 µM; in [4] it was no less than 154 µM; in [5] it was greater than 154 µM; in test [6], no less than 154 µM. Also, the MIC is no less than 154 µM in test [7]; no less than 154 µM in test [8]; no less than 154 µM in test [9]; 38.5 µM (≈ 32 µg/mL) in test [10]; no less than 77 µM in test [11].

Consider `CC[C@H](C)[C@H](NC(=O)[C@H](CO)NC(=O)[C@@H]1CCCN1C(=O)[C@H](C)NC(=O)CNC(=O)[C@H](CC(C)C)NC(=O)[C@H](CCCCN)NC(=O)[C@H](CCCCN)NC(=O)[C@H](CCSC)NC(=O)[C@H](CCCN=C(N)N)NC(=O)[C@H](Cc1c[nH]c2ccccc12)NC(=O)[C@H](CCC(N)=O)NC(=O)[C@H](Cc1c[nH]c2ccccc12)NC(=O)[C@H](CCCN=C(N)N)NC(=O)[C@H](CCCN=C(N)N)NC(=O)[C@H](CS)NC(=O)[C@H](CCCCN)NC(=O)[C@@H](N)Cc1ccccc1)C(=O)N[C@H](C(=O)N[C@@H](CS)C(=O)N[C@H](C(=O)N[C@@H](CCCN=C(N)N)C(=O)N[C@@H](CCCN=C(N)N)C(=O)N[C@@H](C)C(=O)N[C@@H](Cc1ccccc1)C(=O)N[C@@H](C)C(=O)O)C(C)C)[C@@H](C)O` [FKCRRWQWRMKKLGAPSITCVRRAFA], for which the MIC stood at 6 µM (≈ 19.2 µg/mL) in test [12]; 6 µM (≈ 19.2 µg/mL) against Pseudomonas fluorescens; 4 µM (≈ 12.8 µg/mL) with Escherichia coli L361; 4 µM (≈ 12.8 µg/mL) in test [13]; 8 µM (≈ 25.6 µg/mL) in the test on Bacillus cereus ACM 446; 8 µM (≈ 25.6 µg/mL) against Escherichia coli O9. Moreover, the MIC in [14] is 4 µM (≈ 12.8 µg/mL).

`CC[C@H](C)[C@H](NC(=O)CN)C(=O)NCC(=O)N[C@@H](C)C(=O)N[C@H](C(=O)N[C@@H](CC(C)C)C(=O)N[C@@H](CCCCN)C(=O)N[C@H](C(=O)N[C@@H](CC(C)C)C(=O)N[C@H](C(=O)N[C@H](C(=O)NCC(=O)N[C@@H](CC(C)C)C(=O)N1CCC[C@H]1C(=O)N[C@@H](C)C(=O)N[C@@H](C)C(=O)N[C@H](C(=O)N[C@@H](CO)C(=O)N[C@@H](Cc1c[nH]c2ccccc12)C(=O)N[C@H](C(=O)N[C@@H](CCCCN)C(=O)N[C@@H](CCCN=C(N)N)C(=O)N[C@@H](CCCCN)C(=O)N[C@@H](CCCN=C(N)N)C(=O)N[C@@H](CCC(N)=O)C(=O)N[C@@H](CCC(N)=O)C(N)=O)[C@@H](C)CC)[C@@H](C)CC)[C@@H](C)O)[C@@H](C)O)C(C)C)C(C)C` [GIGAVLKVLTTGLPAAISWIKRKRQQ]: the MIC worked out at 4.2 µM (≈ 11.8 µg/mL) in test [15], 4.2 µM (≈ 11.8 µg/mL) in test [16], 4.1 µM (≈ 11.5 µg/mL) in test [17] and 3.9 µM (≈ 10.9 µg/mL) in test [18].

Regarding `CC[C@H](C)[C@H](NC(=O)CN)C(=O)N[C@@H](CCCCN)C(=O)N[C@@H](C)C(=O)NCC(=O)N[C@H](C(=O)N[C@H](C(=O)N[C@H](C(=O)N[C@@H](CCCCN)C(=O)N[C@H](C(=O)N[C@@H](CCCCN)C(=O)N[C@@H](CCCCN)C(N)=O)[C@@H](C)CC)[C@@H](C)CC)[C@@H](C)CC)[C@@H](C)CC` [GIKAGIIIKIKK], the MIC in the test with Escherichia coli NDM-1 was 16 µM (≈ 20.5 µg/mL); in the test on Enterobacter cloacae it was 22.6 µM (≈ 29 µg/mL); in test [19] it was 22.6 µM (≈ 29 µg/mL); with Enterococcus faecalis, no less than 64 µM; against Klebsiella oxytoca, no less than 32 µM; in test [20], 16 µM (≈ 20.5 µg/mL). Further, the minimal inhibitory concentration (MIC) in the test on Morganella morganii was no less than 128 µM; with Citrobacter freundii, 16 µM (≈ 20.5 µg/mL); in test [21] it was no less than 128 µM; in [10], 16 µM (≈ 20.5 µg/mL).

As for `CC(C)C[C@H](NC(=O)[C@H](CC(C)C)NC(=O)[C@H](CCCCN)NC(=O)[C@H](CC(C)C)NC(=O)CNC(=O)[C@H](CC(C)C)NC(=O)[C@H](CCCCN)NC(=O)[C@H](CC(C)C)NC(=O)[C@H](CC(C)C)NC(=O)[C@H](CC(C)C)NC(=O)[C@H](CCCCN)NC(=O)[C@H](CC(C)C)NC(=O)CN)C(N)=O` [GLKLLLKLGLKLL], the MIC in test [3] is greater than 25 µM; in test [22] it was 25 µM (≈ 35.5 µg/mL); in test [23], 1.56 µM (≈ 2.22 µg/mL); in test [10], greater than 25 µM.

Consider `CC[C@H](C)[C@H](N)C(=O)N[C@H](C(=O)N[C@@H](CCCCN)C(=O)N[C@@H](CCC(N)=O)C(=O)N[C@H](C(=O)N[C@H](C(=O)N[C@@H](CCCCN)C(=O)N[C@@H](CCC(N)=O)C(=O)N[C@@H](CC(C)C)C(=O)N[C@@H](CC(N)=O)C(=O)N[C@@H](CCCN=C(N)N)C(=O)N[C@@H](CCC(N)=O)C(=O)N[C@H](C(=O)N[C@@H](CCCCN)C(=O)N[C@H](C(=O)N[C@@H](CCC(N)=O)C(=O)N[C@@H](CO)C(=O)N[C@@H](CCCCN)C(=O)O)[C@@H](C)CC)[C@@H](C)O)[C@@H](C)O)[C@@H](C)CC)[C@@H](C)O` [ITKQITKQLNRQTKIQSK], for which the MIC in [24] is greater than 100 µM; in [25], no less than 100 µM; in test [26] it was greater than 100 µM; in test [27], no less than 100 µM; in test [18], no less than 100 µM; in test [28], no less than 100 µM. Moreover, in [29], the MIC was no less than 100 µM.

With `CC[C@H](C)[C@H](NC(=O)CNC(=O)[C@H](CCCN=C(N)N)NC(=O)[C@H](Cc1ccc(O)cc1)NC(=O)[C@@H](NC(=O)[C@H](CCCN=C(N)N)NC(=O)[C@H](Cc1ccccc1)NC(=O)[C@@H](N)Cc1c[nH]c2ccccc12)C(C)C)C(=O)N[C@@H](Cc1ccc(O)cc1)C(=O)N[C@@H](CCCN=C(N)N)C(=O)N[C@@H](CCCN=C(N)N)C(=O)N[C@@H](CCCN=C(N)N)C(N)=O` [WFRVYRGIYRRR], the MIC against Escherichia coli C25 was no less than 72 µM; in [30], 72 µM (≈ 124 µg/mL).
